Strand notation (5' to 3'): a small letter for the sugar, then the base; units joined by * are phosphorothioate-linked, units joined directly phosphodiester-linked; [ ] holds rarer units or linkages, { } end groups; capitals alone tell only the bases. [ms] = mesyl phosphoramidate linkage; e = 2'-O-(2-methoxyethyl) (MOE); k = constrained ethyl (cEt); [5mC] = 5-methylcytosine; d = 2'-deoxy (DNA)
Tests used:
[1] = system: human APOE RNA; experiment: Activity in APOE C57BL/6NTac-Apoeem7250 knock-in mice, single ICV bolus, 8 weeks (Example 11); type: in vivo; details: for APOE RNA (% control) Cortex / APOE RNA (% control) Spinal Cord: single ICV bolus 300 μg, 8 weeks post treatment, normalized to mouse Ppia
Procedure: (§1) Modified oligonucleotides described above were tested in the APOE C57BL/6NTac-Apoeem7250 knock-in mouse model described above.
Each mouse received a single ICV bolus of 300 μg of modified oligonucleotide. A group of 3-4 mice received a single ICV bolus with PBS as a negative control.
(§2) Eight weeks post treatment, mice were sacrificed and RNA was extracted from cortical brain tissue and spinal cord for quantitative real-time RT-PCR analysis of RNA expression of APOE using human primer probe set RTS3073 (described herein above). APOE RNA levels were normalized to mouse Ppia. Mouse Ppia was amplified using primer probe set m_cyclo24 (described herein above). Results are presented as percent human APOE RNA relative to the amount of human APOE RNA in PBS treated animals, (% control). Each experiment is identified in separate tables below.

[2] = system: human APOE RNA; experiment: Activity in APOE C57BL/6NTac-Apoeem7250 knock-in mice, single ICV bolus, 16 weeks (Example 12); type: in vivo; details: single ICV bolus 300 μg, 16 weeks post treatment, normalized to mouse Ppia
Procedure: as §1
APOE C57BL/6NTac-Apoeem7250 knock-in mice were divided into groups of 3-4 mice each. Each mouse received a single intracerebroventricular (ICV) bolus of 300 μg of modified oligonucleotide. A group of 4 mice received a single ICV bolus with PBS as a negative control.
as §2, with “Sixteen” for “Eight”, “using” for “using human”

| Substance | APOE RNA (% control) Cortex [1] [% control] | APOE RNA (% control) Spinal Cord [1] [% control] | APOE RNA (% control) Cortex ([2]; cortex) [% control] | APOE RNA (% control) Spinal Cord ([2]; spinal cord) [% control] | reduction of human APOE RNA in the cortex ([1]; APOE knock-in mouse model, 8 weeks post administration, assay of Example 11) [%] |
| --- | --- | --- | --- | --- | --- |
| 1693051: 5-10-5 MOE gapmer TTGGTGAATCTTTATTAAAC, linkages ssosszzzsssssssosss (antisense eT*eT*eGeG*eT*dG[ms]dA[ms]dA[ms]dT*d[5mC]*dT*dT*dT*dA*dT*eTeA*eA*eA*e[5mC]) [compound 1693051] | 114 | 76 | 97 | 79 |  |
| 1652911: 5-10-5 MOE gapmer GGTGAATCTTTATTAAACTA, linkages sooosszzzssssssooss (antisense eG*eGeTeGeA*dA*dT[ms]d[5mC][ms]dT[ms]dT*dT*dA*dT*dT*dA*eAeAe[5mC]*eT*eA) [compound 1652911] | 130 | 57 |  |  |  |
| Compound No. 1517578: comparator of WO 2022/066956; CTTGGTGAATCTTTATTAAA, sugar eeeeeddddddddddeeeee, linkages sooosssssssssssooss (MOE gapmer, mixed PS/PO linkages, chemistry not fully specified) [reference compound] | 66 | 47 |  |  | 34 |
| 1652899: 6-10-4 MOE gapmer TGGTGAATCTTTATTAAACT, linkages sooooossssssssssoss (antisense eT*eGeGeTeGeAdA*dT*d[5mC]*dT*dT*dT*dA*dT*dT*dA*eAeA*e[5mC]*eT) [compound 1652899] | 57 | 16 |  |  |  |
| 1809813 (eT*eTeGkG*dT*dG[ms]dA[ms]dA[ms]dT*d[5mC]*dT*dT*dT*dA[ms]kT*kT*eA*eA*eA*e[5mC]; antisense) [Compound 1809813] | 37 | 32 |  |  |  |
| 1809741: mixed MOE/cEt gapmer CTTGGTGAATCTTTATTAAAC, sugar eeeeekddddddddddeeeee, linkages ssoooszzsssssszsooss (e[5mC]*eT*eTeGeGkT*dG[ms]dA[ms]dA*dT*d[5mC]*dT*dT*dT*dA[ms]dT*eTeAeA*eA*e[5mC]) [compound 1809741] | 33 | 28 |  |  |  |
| 1652916: 5-10-5 MOE gapmer GGTGAATCTTTATTAAACTA, linkages soooszzzsssssszooss (antisense eG*eGeTeGeA*dA[ms]dT[ms]d[5mC][ms]dT*dT*dT*dA*dT*dT*dA[ms]eAeAe[5mC]*eT*eA) [compound 1652916] | 128 | 49 |  |  |  |
| 1809690: mixed MOE/cEt gapmer CTTGGTGAATCTTTATTAA, sugar eeeekddddddddddkkek, linkages sosssszzzssssszoss (e[5mC]*eTeT*eG*kG*dT*dG[ms]dA[ms]dA[ms]dT*d[5mC]*dT*dT*dT*dA[ms]kTkT*eA*kA) [compound 1809690] | 26 | 24 |  |  |  |
| 1652907: 5-10-5 MOE gapmer GGTGAATCTTTATTAAACTA, linkages soooszzssssssssooss (antisense eG*eGeTeGeA*dA[ms]dT[ms]d[5mC]*dT*dT*dT*dA*dT*dT*dA*eAeAe[5mC]*eT*eA) [compound 1652907] | 54 | 16 |  |  |  |
| 1652905: 6-10-4 MOE gapmer GGTGAATCTTTATTAAACTA, linkages sooossssssssssssoss (antisense eG*eGeTeGeA*eA*dT*d[5mC]*dT*dT*dT*dA*dT*dT*dA*dA*eAe[5mC]*eT*eA) [compound 1652905] | 44 | 15 |  |  |  |
| 1652900: 6-10-4 MOE gapmer GTGAATCTTTATTAAACTAG, linkages sooooossssssssssoss (antisense eG*eTeGeAeAeTd[5mC]*dT*dT*dT*dA*dT*dT*dA*dA*dA*e[5mC]eT*eA*eG) [compound 1652900] | 83 | 47 |  |  |  |
| 1652918: 6-10-4 MOE gapmer GGTGAATCTTTATTAAACTA, linkages sooooozzzsssssssoss (antisense eG*eGeTeGeAeAdT[ms]d[5mC][ms]dT[ms]dT*dT*dA*dT*dT*dA*dA*eAe[5mC]*eT*eA) [compound 1652918] | 91 | 47 |  |  |  |
| 1652910: 5-10-5 MOE gapmer GGTGAATCTTTATTAAACTA, linkages sooosszzsssssssooss (antisense eG*eGeTeGeA*dA*dT[ms]d[5mC][ms]dT*dT*dT*dA*dT*dT*dA*eAeAe[5mC]*eT*eA) [compound 1652910] | 82 | 39 |  |  |  |
| 1810063: mixed MOE/cEt gapmer CTTGGTGAATCTTTATTAAAC, sugar eeeeeeddddddddddkkeee, linkages ssoosszzzssssszsooss (e[5mC]*eT*eTeGeG*eT*dG[ms]dA[ms]dA[ms]dT*d[5mC]*dT*dT*dT*dA[ms]dT*kTkAeA*eA*e[5mC]) [compound 1810063] | 43 | 40 |  |  |  |
| 1809745: mixed MOE/cEt gapmer CTTGGTGAATCTTTATTAAAC, sugar eeeeekddddddddddeeeee, linkages zsoooszzsssssszsoosz (e[5mC][ms]eT*eTeGeGkT*dG[ms]dA[ms]dA*dT*d[5mC]*dT*dT*dT*dA[ms]dT*eTeAeA*eA[ms]e[5mC]) [compound 1809745] | 26 | 16 |  |  |  |
| 1652898: 6-10-4 MOE gapmer GGTGAATCTTTATTAAACTA, linkages sooooossssssssssoss (antisense eG*eGeTeGeAeAdT*d[5mC]*dT*dT*dT*dA*dT*dT*dA*dA*eAe[5mC]*eT*eA) [compound 1652898] | 56 | 20 |  |  |  |
| 1652909: 5-10-5 MOE gapmer GGTGAATCTTTATTAAACTA, linkages soooszzzzssssssooss (antisense eG*eGeTeGeA*dA[ms]dT[ms]d[5mC][ms]dT[ms]dT*dT*dA*dT*dT*dA*eAeAe[5mC]*eT*eA) [compound 1652909] | 55 | 23 |  |  |  |
| 1652919: 6-10-4 MOE gapmer GGTGAATCTTTATTAAACTA, linkages soooooszzzssssssoss (antisense eG*eGeTeGeAeAdT*d[5mC][ms]dT[ms]dT[ms]dT*dA*dT*dT*dA*dA*eAe[5mC]*eT*eA) [compound 1652919] | 90 | 54 |  |  |  |
| 1652912: 5-10-5 MOE gapmer GGTGAATCTTTATTAAACTA, linkages sooossssssszsszooss (antisense eG*eGeTeGeA*dA*dT*d[5mC]*dT*dT*dT*dA[ms]dT*dT*dA[ms]eAeAe[5mC]*eT*eA) [compound 1652912] | 95 | 41 |  |  |  |
| 1652917: 6-10-4 MOE gapmer GGTGAATCTTTATTAAACTA, linkages sooooossssszsszzoss (antisense eG*eGeTeGeAeAdT*d[5mC]*dT*dT*dT*dA[ms]dT*dT*dA[ms]dA[ms]eAe[5mC]*eT*eA) [compound 1652917] | 107 | 41 |  |  |  |
| 1652914: 5-10-5 MOE gapmer GGTGAATCTTTATTAAACTA, linkages soooszzssssssszooss (antisense eG*eGeTeGeA*dA[ms]dT[ms]d[5mC]*dT*dT*dT*dA*dT*dT*dA[ms]eAeAe[5mC]*eT*eA) [compound 1652914] | 108 | 43 |  |  |  |
| 1652913: 5-10-5 MOE gapmer GGTGAATCTTTATTAAACTA, linkages soooszssssszsszooss (antisense eG*eGeTeGeA*dA[ms]dT*d[5mC]*dT*dT*dT*dA[ms]dT*dT*dA[ms]eAeAe[5mC]*eT*eA) [compound 1652913] | 75 | 33 |  |  |  |
| 1809818 (eT*eTeGkG*dT*dG[ms]dA[ms]dA[ms]dT*d[5mC]*dT*dT*dT*dA[ms]kT*kTeAeA*eA*e[5mC]; antisense) [Compound 1809818] | 42 | 36 |  |  |  |
| 1809691: mixed MOE/cEt gapmer CTTGGTGAATCTTTATTAA, sugar eeeekddddddddddkeek, linkages sosssszzzssssszoss (e[5mC]*eTeT*eG*kG*dT*dG[ms]dA[ms]dA[ms]dT*d[5mC]*dT*dT*dT*dA[ms]kTeT*eA*kA) [compound 1809691] | 27 | 17 |  |  |  |
